Marks after values point to notes of the source that are not given here.
Tested on: Male cockroaches (Blattela germanica)
Assay: Y-tube olfactometer bioassay, test compound in mineral oil on filter paper
Type: in vivo
Conditions: 0.5% w/v solution in mineral oil; mean of 3 replicates; 65% or more = significantly attractive (*), 35% or less = significantly repellent (**)
Text: The German cockroach (Blattela germanica) is one of the most difficult cockroach species to control in homes and was used to illustrate the invention. […] Since the cockroaches never contact the test sample, their response is strictly to the molecules in the air stream.
(§1) Olfactometer Bioassay: The Y-tube bioassay apparatus was similar to that described by Vander Meer et al. (J. Chem. Ecol., 14: 825-838 (1988)). Compressed air (breathing-air quality) was passed into the two choice arms at 0.2 l/min for a total flow of 0.4 l/min. Flow rates were adjusted and controlled by two flow meters (Omega Engineering, Inc.). All tubing carrying the air was either copper or Teflon. Prior to evaluating treatment samples, a positive standard was put through the bioassay procedure. […] Test samples (10.0 μl) and the solvent blank (mineral oil, 10.0 μl) were applied to filter paper strips (0.3×1.0 cm, Whatman No. 1) and then each was placed into one of the two choice arms. Male cockroaches (Blattela germanica) were prepared for their introduction into the olfactometer by placing them in a Teflon tube (3 cm×0.8 cm) that had one end blocked with a piece of copper mesh screen. The open end of tube was closed with a lightly attached piece of tape. The cockroaches were introduced individually by removing the tape and quickly inserting the Teflon tube into the entrance arm of the olfactometer. […] The initial choice of the cockroach was recorded. The cockroach was removed and the process was repeated 10 times with the same test and blank samples. The 10 choices usually required less than 5 minutes to complete. After each set of 10 cockroaches had made their choice, the olfactometer was rinsed with acetone, dried, and reassembled for the next test. Each sample was retested with the same cockroaches, but with the sample and control in reverse positions. The sum of the results from the two tests represented one replicate. This procedure minimized bias inherent in the apparatus. A null hypothesis of equal numbers of cockroaches in each arm was tested with chi-square analysis. […] Results in-between were neutral.
The diameter of the Y part of the olfactometer provided a close fit for the cockroach, thus keeping it in the center of the walkway.

Row | SMILES | Percent Response
1 | CCCCOC(C)=O [Butyl Acetate] | 45.0%
2 | CCCCOC(=O)CCC [Butyl Butanoate] | 35.0** %
3 | CCCCCCC(=O)OCCCC [Butyl Heptanoate] | 80.0* %
4 | CCCCCC(=O)OCCCC [Butyl Hexanoate] | 75.0* %
5 | CCCCCCCCC(=O)OCCCC [Butyl Nonanoate] | 40.0%
6 | CCCCCCCC(=O)OCCCC [Butyl Octanoate] | 55.0%
7 | CCCCOC(=O)CCCC [Butyl Pentanoate] | 50.0%
8 | CCCCOC(=O)CC [Butyl Propanoate] | 15.0** %
9 | CCCC(=O)OCC [Ethyl Butyrate] | 63.3%
10 | CCCCCCC(=O)OCC [Ethyl Heptanoate] | 40.0%
11 | CCCCCC(=O)OCC [Ethyl Hexanoate] | 75.0* %
12 | CCCCCCCC(=O)OCC [Ethyl Octanoate] | 50.0%
13 | CCCCC(=O)OCC [Ethyl Pentanoate] | 65.0* %
14 | CCOC(=O)CC [Ethyl Propanoate] | 65.0* %
15 | CCCCCCOC(=O)CCC [Hexyl Butanoate] | 35.0** %
16 | CCCC(=O)OC [Methyl Butanoate] | 55.0%
17 | CCCCCCCCCC(=O)OC [Methyl Decanoate] | 55.0%
18 | CCCCCCCCCCCC(=O)OC [Methyl Dodecanoate] | 45.0%
19 | CCCCCCC(=O)OC [Methyl Heptanoate] | 50.0%
20 | CCCCCC(=O)OC [Methyl Hexanoate] | 45.0%
21 | CCCCCCCCC(=O)OC [Methyl Nonanoate] | 45.0%
22 | CCCCC(=O)OC [Methyl Pentanoate] | 50.0%
23 | CCC(=O)OC [Methyl Propanoate] | 60.0%
24 | CCCCCCCCCCC(=O)OC [Methyl Undecanoate] | 45.0%
25 | CCCOC(=O)CCC [Propyl Butanoate] | 35.0** %
26 | CCCOC(C)=O [Propyl acetate] | 40.0%

Tested on: Male cockroaches (Blattela germanica)
Assay: Y-tube olfactometer bioassay of controlled release pellets aged in a fume hood
Type: in vivo
Conditions: Charcoal absorbent, methylcellulose coated pellet; aged 1 hour in fume hood; mean of 3 replicates
Text: as §1, with “procedure. The standard was initially an attractive food material (grape flavoring concentrate used at 0.33%) and later 0.5% (w/v) methyl tiglate, one of the compounds of the present invention, in white, light mineral oil (Aldrich Chemical Co.).” for “procedure.”
Controlled Release Formulations: Four esters found to be significant cockroach attractants were selected for evaluation in controlled release formulations-developed by BioGuard, Inc. Six controlled release formulations from BioGuard were evaluated in the olfactometer. The attractants were methyl tiglate, butyl hexanoate, propyl propanoate, and butyl heptanoate. The attractants were absorbed to either coconut shell charcoal pellets or potassium substituted crystalline zeolite pellets, and then coated with water soluble methylcellulose. The powdered methyl cellulose was dissolved in 80° C. water until saturation, cooled to approx 25° C., the pellets immersed into the solution for a 30 sec, and removed and rapidly air dried with 30° C. pre-dried air. The end products were pellets (charcoal=2 mm×4 mm dia.; molecular sieve=4 mm×1.5 mm dia.). […] A single pellet was used in place of the filter paper described above. The control side was left blank.

Row | SMILES | Percent Response
27 | CCCCCCC(=O)OCCCC [Butyl Heptanoate] | 70.0%
28 | CCCCCC(=O)OCCCC [Butyl Hexanoate] | 82.0%

Same assay, conditions: charcoal as the absorbent; after one hour in the fume hood

Row | SMILES | activity in the olfactometer (in words)
29 | CCCCCCC(=O)OCCCC [Butyl Heptanoate] | significantly active
30 | CCCCCC(=O)OCCCC [Butyl Hexanoate] | significantly active

Same assay, conditions: charcoal controlled release formulation; aged 24 hours in fume hood; mean of 3 replicates

Row | SMILES | Percent Response
31 | CCCCCCC(=O)OCCCC [Butyl Heptanoate] | 61.6%
32 | CCCCCC(=O)OCCCC [Butyl Hexanoate] | 70.0%

Same assay, conditions: charcoal controlled release formulation; aged 48 hours in fume hood; mean of 3 replicates

Row | SMILES | Percent Response
33 | CCCCCCC(=O)OCCCC [Butyl Heptanoate] | 58.3%
34 | CCCCCC(=O)OCCCC [Butyl Hexanoate] | 61.6%

Tested on: not listed separately
Assay: Release rate of attractants from sustained release delivery systems
Type: physicochemical
Conditions: 1 gm active in Accurel MP100 in metalized polyethylene sachet with 0.5 mm hole
Text: Several secondary release rate control systems were developed. The first was a sachet that can contain the above polymer releasing system. This sachet can be either polyvinylidine chloride (PvdC) barrier film (e.g., Saranex™) enclosed in a thermally sealed metalized polyethylene container to eliminate release of active compounds, or a metalized polyethylene sachet with a removable seal that covers a vapor diffusion controlling orifice which when removed begins the release process from the internal polymer/carrier, or metalized polyethylene sachet which contains a small vial with a vapor controlling orifice. In the case of the Saranex™ sachet, the actual porosity of the Saranex™ control release is based on type of PVdC and thickness of the film. In the case of the metalized polyethylene sachet and internal polymer/carrier, a specific orifice size controlled the rate of diffusion of the active from the device, as shown in FIG. 4. An additional means of containing and reducing the release of the liquid active compounds and providing a solid support for use in the above delivery system involved sorbing the active compounds into an inert absorbent such as Membrana GmbH's expanded microporous polyolefin Accurel® MP100 which are granular or pelletized polyethylenes that have 10-50 μm air pockets throughout and can contain up to 90% of their volume in active compounds . MP100 was easily loaded with 80% by wt active ingredient due to its porosity. […] Thus, placement into the metalized polyethylene sachet with its diffusion regulating orifice was required.
Active compounds (1 gm active in Accurel® MP100) were sealed within the metalized polyethylene sachet, and a 0.5 mm hole placed into the film, and sealed until use with a metalized tape. Release rates for propyl propanoate, methyl tiglate, and butyl hexanoate were calculated at 15.5, 11.4, and 4.8 mg/day, respectively. Longevity of this system was calculated to be 64, 87, and 208 days, respectively.
Release rates for the thermoset urethane (Flexane® 80P) and synthetic rubbers systems ranged from 0.055 to 0.2 mg/cm^2/day, depending on durometer/hardness that is a measure of polymer crosslinking. Best results were obtained at durometer/hardness levels above D30. Release rates for the Saranex system without the release control provided by the metalized polyethylene and diffusion control orifice were 187, 236, and 7 mg/day for propyl propanoate, methyl tiglate, and butyl hexanoate, respectively.

Row | Longevity of the release system | SMILES
35 | 208 days | CCCCCC(=O)OCCCC [Butyl Hexanoate]

Same assay, conditions: 1 gm active in Accurel MP100 in metalized polyethylene sachet with 0.5 mm hole; FIG. 3

Row | Release rate | SMILES
36 | 4.8 mg/day | CCCCCC(=O)OCCCC [Butyl Hexanoate]

Same assay, conditions: Saranex system without metalized polyethylene and diffusion control orifice

Row | Release rate | SMILES
37 | 7 mg/day | CCCCCC(=O)OCCCC [Butyl Hexanoate]

Tested on: German roaches (B. germanica)
Assay: Two-harborage arena bioassay of sustained release polymer formulations
Type: in vivo
Conditions: formulated with Santoprene; counted after 24 hours
Text: Evaluation of sustained release formulations: Three cockroach attractants (methyl tiglate, butyl heptanoate, and propyl proprionate) were formulated in one or more polymer formulations (Urethane, Pellethane, Santoprene, and/or Polyethylene) as indicated in Table 4.A sweater box (1.5×2.0×0.5 ft) provided the test arena. The sides of the arena were coated with a blend of mineral oil and Vaseline petroleum jelly. The tops of two 8 oz paper ice cream cups were tapped to the arena floor with masking tape and, prior to the addition of the test cockroaches, inverted cups without holes were fixed to the tapped lids. Twenty-five laboratory reared late stage nymphs or adult male German roaches (B. germanica), starved for 72 hrs, were added to the arena and allowed to calm down (ca. 1 hour). The starting inverted ice cream cups were carefully removed and each ice cream cup top was then supplied with a water tube (1.5 ml scintillation vial with water and stoppered with cotton), one lab chew food pellet, and either a test attractant polymer formulation or the corresponding polymer blank control. […] The cups were oriented so that the holes were facing each other. The number of roaches that sought harborage in the cups was counted after 24 hours by plugging the entrance holes with cotton, the roaches inside euthanized, and the numbers in each cup counted.

Row | SMILES | attraction to treatment harborage versus polymer blank control (in words)
38 | CCCCCC(=O)OCCCC [Butyl Hexanoate] | significant attraction and subsequent aggregation

Tested on: cockroach
Assay: Bioassays for cockroach attraction of attractants sorbed into thermoplastic polymers
Type: in vivo
Conditions: loaded into Dow Pellethane
Text: To alleviate the reactivity with the carrier polymers, we attempted to load active compounds into a series of thermoplastic polymers including urethanes and synthetic rubbers, based on the behavior of the active compounds as plasticizers. […] Propyl propanoate, methyl hexanoate, and methyl tiglate were loaded into a series of thermoplastic granulated feed materials, including 4-(1,1,3,3-tetramethylbutyl) with ethylene-5-ethylidenebicyclo[2.2.1]hept-2-ene-propene thermoplastic synthetic rubber (Santopren™ 203-40). Santoprene™ is a thermoplastic elastomer (TPE that is a mixture of in-situ cross linking of EPDM rubber and polypropylene compounds). Because of the longer life of Santopren™ in both extreme hot and cold environments, it is often preferred over the use of rubber. Pellethane™ 2102-55D is a polyester polycaprolactone polyurethane. Methyl hexanoate and methyl tiglate were sorbed using heat and pressure (60° C., 40 psi, 30 min) into the Santoprene® and were effective in bioassays for cockroach attraction. […] Loading rates of active compounds into the Santoprene®, using slightly elevated temperature (60° C.) and 40 psi pressure, were 8-12% by wt for the two compounds.

Row | SMILES | effect in bioassays for cockroach attraction (in words)
39 | CCCCCC(=O)OC [Methyl Hexanoate] | worked less well

Same assay, conditions: sorbed into Santoprene (60° C., 40 psi, 30 min)

Row | SMILES | effect in bioassays for cockroach attraction (in words)
40 | CCCCCC(=O)OC [Methyl Hexanoate] | effective

Source: US8273340B2, “Methods and compositions for attracting or repelling cockroaches” (The United States of America, as represented by the …, priority 2008, dated 2012)
